Assay results as given in paper PMC6199744, “Development of Chemical Proteomics for the Folateome and Analysis of the Kinetoplastid Folateome” (ACS Infectious Diseases, 2018).
Read-outs that look alike come from different tables or passages of the source.

What was measured:
Format in all cases: binding
[1] = target: T1, HeLa cell extract proteins (Homo sapiens, UniProt O75608)
T1 construct: endogenous in cells; host or cells: HeLa cell extract

[2] = target: T2, HeLa cell extract proteins (Homo sapiens, UniProt O95714)
T2 construct: endogenous in cells; host or cells: HeLa cell extract

[3] = target: T3, HeLa cell extract proteins (Homo sapiens, UniProt P04075)
T3 construct: endogenous in cells; host or cells: HeLa cell extract
T3 sequence (P04075 1-364): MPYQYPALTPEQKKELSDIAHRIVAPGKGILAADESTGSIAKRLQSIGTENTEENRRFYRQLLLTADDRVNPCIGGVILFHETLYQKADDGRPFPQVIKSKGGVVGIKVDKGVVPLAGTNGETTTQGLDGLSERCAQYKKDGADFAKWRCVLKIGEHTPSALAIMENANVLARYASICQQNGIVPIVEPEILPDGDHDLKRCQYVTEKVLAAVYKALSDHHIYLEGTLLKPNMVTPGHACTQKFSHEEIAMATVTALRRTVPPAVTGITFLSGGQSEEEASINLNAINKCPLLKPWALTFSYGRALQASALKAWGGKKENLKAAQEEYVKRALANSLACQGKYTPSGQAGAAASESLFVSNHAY

[4] = target: T4, HeLa cell extract proteins (Homo sapiens, UniProt Q02218)
T4 construct: endogenous in cells; host or cells: HeLa cell extract
T4 sequence (Q02218 41-1023): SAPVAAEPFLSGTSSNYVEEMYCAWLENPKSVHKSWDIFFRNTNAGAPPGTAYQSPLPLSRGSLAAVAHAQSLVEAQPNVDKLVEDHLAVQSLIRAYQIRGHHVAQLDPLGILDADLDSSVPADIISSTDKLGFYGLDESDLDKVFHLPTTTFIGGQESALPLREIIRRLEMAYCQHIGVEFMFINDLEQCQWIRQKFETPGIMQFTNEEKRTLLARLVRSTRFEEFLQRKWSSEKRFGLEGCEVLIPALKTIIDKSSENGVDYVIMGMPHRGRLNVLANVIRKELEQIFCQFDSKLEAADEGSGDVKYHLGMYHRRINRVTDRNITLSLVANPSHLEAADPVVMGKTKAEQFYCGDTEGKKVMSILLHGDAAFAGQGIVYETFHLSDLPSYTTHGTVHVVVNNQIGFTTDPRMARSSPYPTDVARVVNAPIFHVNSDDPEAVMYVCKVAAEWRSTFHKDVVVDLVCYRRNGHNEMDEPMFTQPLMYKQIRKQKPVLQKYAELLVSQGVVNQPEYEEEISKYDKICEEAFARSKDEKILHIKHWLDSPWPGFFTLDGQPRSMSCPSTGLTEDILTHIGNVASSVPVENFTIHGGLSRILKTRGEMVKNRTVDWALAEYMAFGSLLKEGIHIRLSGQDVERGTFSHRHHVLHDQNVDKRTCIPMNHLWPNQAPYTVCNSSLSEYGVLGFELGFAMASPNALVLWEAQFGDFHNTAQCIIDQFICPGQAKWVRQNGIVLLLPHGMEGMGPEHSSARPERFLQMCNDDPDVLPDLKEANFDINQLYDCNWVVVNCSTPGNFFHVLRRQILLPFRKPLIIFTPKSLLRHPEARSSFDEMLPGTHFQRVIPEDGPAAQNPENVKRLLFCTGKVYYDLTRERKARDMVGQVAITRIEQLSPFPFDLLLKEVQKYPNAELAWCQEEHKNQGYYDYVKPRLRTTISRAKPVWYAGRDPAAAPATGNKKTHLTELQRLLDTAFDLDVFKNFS

[5] = target: T5, HeLa cell extract proteins (Homo sapiens, UniProt Q96CW5)
T5 construct: endogenous in cells; host or cells: HeLa cell extract
T5 sequence (Q96CW5 whole entry): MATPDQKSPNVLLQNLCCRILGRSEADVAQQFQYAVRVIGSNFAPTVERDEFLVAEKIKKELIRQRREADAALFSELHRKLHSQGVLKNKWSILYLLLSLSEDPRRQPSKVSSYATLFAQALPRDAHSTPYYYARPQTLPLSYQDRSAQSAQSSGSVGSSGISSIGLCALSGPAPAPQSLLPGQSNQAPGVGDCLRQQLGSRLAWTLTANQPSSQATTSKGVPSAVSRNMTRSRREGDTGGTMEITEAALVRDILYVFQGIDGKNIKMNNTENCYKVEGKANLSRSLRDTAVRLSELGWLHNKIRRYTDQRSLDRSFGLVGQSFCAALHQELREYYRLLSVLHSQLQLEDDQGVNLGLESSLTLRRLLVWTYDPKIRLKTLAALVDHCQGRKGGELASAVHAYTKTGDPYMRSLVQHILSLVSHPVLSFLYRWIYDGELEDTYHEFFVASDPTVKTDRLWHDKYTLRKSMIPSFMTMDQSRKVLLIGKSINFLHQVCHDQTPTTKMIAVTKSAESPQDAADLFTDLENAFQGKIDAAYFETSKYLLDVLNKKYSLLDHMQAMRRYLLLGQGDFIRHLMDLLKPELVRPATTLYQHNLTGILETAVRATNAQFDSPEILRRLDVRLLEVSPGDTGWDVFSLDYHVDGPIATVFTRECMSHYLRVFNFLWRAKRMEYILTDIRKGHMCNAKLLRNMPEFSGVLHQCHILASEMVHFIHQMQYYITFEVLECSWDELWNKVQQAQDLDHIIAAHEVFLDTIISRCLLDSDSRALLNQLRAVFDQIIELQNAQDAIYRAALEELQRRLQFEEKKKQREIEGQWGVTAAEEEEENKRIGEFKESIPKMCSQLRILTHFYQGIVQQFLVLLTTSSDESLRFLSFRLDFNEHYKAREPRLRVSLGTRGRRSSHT

[6] = target: T6, HeLa cell extract proteins (Homo sapiens, UniProt Q96EY1)
T6 construct: endogenous in cells; host or cells: HeLa cell extract
T6 sequence (Q96EY1 1-480): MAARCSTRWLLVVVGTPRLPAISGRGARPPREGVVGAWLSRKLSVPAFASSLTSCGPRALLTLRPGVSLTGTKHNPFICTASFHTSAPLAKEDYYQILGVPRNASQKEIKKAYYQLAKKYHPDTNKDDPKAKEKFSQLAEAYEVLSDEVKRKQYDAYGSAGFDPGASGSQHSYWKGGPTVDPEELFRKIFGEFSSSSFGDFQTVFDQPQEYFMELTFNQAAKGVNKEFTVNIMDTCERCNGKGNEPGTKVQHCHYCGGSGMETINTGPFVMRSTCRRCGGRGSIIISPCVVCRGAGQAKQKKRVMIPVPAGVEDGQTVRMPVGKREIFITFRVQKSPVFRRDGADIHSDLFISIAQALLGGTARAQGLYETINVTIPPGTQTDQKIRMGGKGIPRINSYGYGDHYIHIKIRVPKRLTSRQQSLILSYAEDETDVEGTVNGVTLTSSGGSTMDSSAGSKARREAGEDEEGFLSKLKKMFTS

[7] = HeLa, protein ALDOA (45 KDA PROTEIN.)

T1 sequence (O75608 whole entry): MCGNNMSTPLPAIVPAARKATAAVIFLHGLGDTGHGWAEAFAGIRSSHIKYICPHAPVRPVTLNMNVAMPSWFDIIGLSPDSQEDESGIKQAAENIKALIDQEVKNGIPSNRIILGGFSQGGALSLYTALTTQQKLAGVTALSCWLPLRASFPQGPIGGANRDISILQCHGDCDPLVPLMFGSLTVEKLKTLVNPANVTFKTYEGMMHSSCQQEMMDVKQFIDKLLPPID

With `Nc1nc2cccc(-c3ccccc3)c2n1Cc1ccc(Cl)c(Cl)c1` [compound 3] the “fold changes relative to vehicle control” value ([1]; HeLa, protein LYPLA1) was 0.71, the “fold changes relative to vehicle control” value ([2]; protein HERC2, HeLa) was 1.08 and the “fold changes relative to vehicle control” value [3, 7] was 0.85 fold. The “fold changes relative to vehicle control” value ([4]; protein OGDH, HeLa) was 1.03, the “fold changes relative to vehicle control” value ([5]; captured protein TUBGCP3, HeLa) was 1.02 and the “fold changes relative to vehicle control” value ([6]; captured protein DNAJA3, HeLa) was 1.05.

`NCCOCCOCC(=O)Nc1nc2ncc(CNc3ccc(C(=O)NC(CCC(=O)O)C(=O)O)cc3)nc2c(=O)[nH]1` (stereo not drawn) [compound 6] was tested, and the “fold changes relative to vehicle control” value ([1]; HeLa, captured protein LYPLA1) was 0.98, the “fold changes relative to vehicle control” value ([2]; protein HERC2, HeLa) was 1.07 and the “fold changes relative to vehicle control” value ([3]; protein ALDOA, HeLa) was 1.34. The “fold changes relative to vehicle control” value ([4]; HeLa, captured protein OGDH) was 1.02, the “fold changes relative to vehicle control” value ([5]; HeLa, protein TUBGCP3) was 1 and the “fold changes relative to vehicle control” value ([6]; protein DNAJA3, HeLa) was 1.2.

For `Nc1nc2[nH]cc(CCc3ccc(C(=O)N[C@@H](CCC(=O)O)C(=O)O)cc3)c2c(=O)[nH]1` [PTX, pemetrexed], the “fold changes relative to vehicle control” value [1] was 0.93, the “fold changes relative to vehicle control” value [2] was 1 and the “fold changes relative to vehicle control” value [3] was 1.21. For the same compound, the “fold changes relative to vehicle control” value [4] was 0.9, the “fold changes relative to vehicle control” value [5] was 1.06 and the “fold changes relative to vehicle control” value [6] was 0.84.

For `Nc1nc2c(c(=O)[nH]1)N(C=O)C(CNc1ccc(C(=O)N[C@@H](CCC(=O)O)C(=O)O)cc1)CN2` (stereo partly drawn) [LEU, leucovorin], the “fold changes relative to vehicle control” value ([1]; HeLa, captured protein LYPLA1) was 0.89, the “fold changes relative to vehicle control” value ([2]; protein HERC2, HeLa) was 1.09 and the “fold changes relative to vehicle control” value ([3]; protein ALDOA, HeLa) was 0.98. The “fold changes relative to vehicle control” value ([4]; HeLa, captured protein OGDH) was 1.13, the “fold changes relative to vehicle control” value ([5]; HeLa, protein TUBGCP3) was 0.87 and the “fold changes relative to vehicle control” value ([6]; protein DNAJA3, HeLa) was 0.8.

With `CCCCCCOc1ccc(Cc2cnc(N)nc2N)cc1` [compound 1] the “fold changes relative to vehicle control” value ([1]; HeLa, protein LYPLA1) was 0.92, the “fold changes relative to vehicle control” value ([2]; protein HERC2, HeLa) was 1 and the “fold changes relative to vehicle control” value [3, 7] was 1.38 fold. For the same compound, the “fold changes relative to vehicle control” value ([4]; protein OGDH, HeLa) was 1.05, the “fold changes relative to vehicle control” value ([5]; captured protein TUBGCP3, HeLa) was 0.94 and the “fold changes relative to vehicle control” value ([6]; captured protein DNAJA3, HeLa) was 0.84.

In the case of `NCCCNc1ccc(C(=O)NC(CCC(=O)O)C(=O)O)cc1` (stereo not drawn) [compound 7], the “fold changes relative to vehicle control” value ([1]; HeLa, captured protein LYPLA1) is reported as 0.92, the “fold changes relative to vehicle control” value ([2]; protein HERC2, HeLa) is reported as 1.09 and the “fold changes relative to vehicle control” value ([3]; protein ALDOA, HeLa) is reported as 1.02. The “fold changes relative to vehicle control” value ([4]; HeLa, captured protein OGDH) was 1.04, the “fold changes relative to vehicle control” value ([5]; HeLa, protein TUBGCP3) was 1.01 and the “fold changes relative to vehicle control” value ([6]; protein DNAJA3, HeLa) was 1.06.

With `CCCCCCOc1cccc(Cc2cnc(N)nc2N)c1` [compound 2] the “fold changes relative to vehicle control” value ([1]; HeLa, protein LYPLA1) was 1.1, the “fold changes relative to vehicle control” value ([2]; protein HERC2, HeLa) was 0.83 and the “fold changes relative to vehicle control” value [3, 7] was 2.49 fold. The “fold changes relative to vehicle control” value ([4]; protein OGDH, HeLa) was 1.26, the “fold changes relative to vehicle control” value ([5]; captured protein TUBGCP3, HeLa) was 1.05 and the “fold changes relative to vehicle control” value ([6]; captured protein DNAJA3, HeLa) was 1.16.
